The experiment has as its system microfilariae of Dirofilaria immitis. Briefly: Dirofilaria immitis, Microfilaria (DiMF) Assay. As to conditions: in vitro, stage (microfilaria or L4) not given, class A/B/C, read-out: D. immitis activity level (IC50 or MED). The experiment is classed as cell-based. As for the experimental part:
Heartworm Screen Dirofilaria immitis (D. immitis)
Dirofilaria immitis, Microfilaria (DiMF) Assay.
Compounds were dissolved and serially diluted in DMSO. Aliquots were spotted to the empty wells of assay plates. Media and microfilariae of Dirofilaria immitis were added to each well to dilute the test compounds to the desired concentrations. Assay plates were incubated for approximately 72 hours, and the larvae in each well were observed microscopically for drug effect. Microfilariae in each well were assessed subjectively for survival or paralysis, and results were reported as Minimum Effective Dose (MED).
Active and selective (DiL4 vs. DiMF potency) example compounds were subsequently evaluated in heartworm positive dog studies to correlate the in vitro selectivity profile with in vivo effects on circulating microfilariae.

A value given as a limit tells only on which side of the number the result lay.

Among the data in patent US11505548B2, “Heterocyclic compounds and their use for treatment of helminthic infections and diseases” (Celgene Corporation, priority 2019, dated 2022) are IC50 values, retold here.

A word on the IC50: it is the midpoint of a concentration-inhibition curve.

In the case of “2-(3-(5-isoprop- oxypyridin-2- yl)-1,2,4- thiadiazol-5- ylamino)-N,N- dimethyl-5- (trifluoromethyl) nicotinamide [Compound 250]”, the IC50 was below 0.2 µM.
